Where “and” joins values, the source holds several entries; their conditions need not be identical. Equal values may be shown once. Read-outs that look alike come from different tables or passages of the source.
Assays:
[1] = PAMPA; for Pm^7.4: pH 7.4
[2] = Charge class Q, dominant calculated charge state at pH 7.4; type: physicochemical
[3] = In combo PAMPA-BBB model, calculated log Po in situ
[4] = PAMPA; for Pm^7.4: pH 7.4; remark: listed apart in the source
[5] = dominant calculated concentration fraction of the drug in a charge state
[6] = difference observed minus calculated, external set, no efflux inhibition

Molecule | log Ppara [1] | Pm^7.4 [1] | Q (charge class) [2, 5] | further results
CN(C)CCC=C1c2ccccc2CCc2ccccc21 [Amitriptyline] | −6.38 | 435 | + | log Po [1]: −1.27; obs–calc (log Po^in situ) ([3]; efflux inhibition mdr1a(−/−)): 0.1; obs–calc (log Po^in situ) ([3]; no efflux inhibition): −0.3 and −0.2
Clc1ccc2c(c1)C(N1CCNCC1)=Nc1ccccc1O2 [Amoxapine] | −5.98 | 289 | + | log PABL [1]: −3.26; log Po [1]: −2.37; obs–calc (log Po^in situ) ([3]; no efflux inhibition): −0.4
Cc1cc(=O)n(-c2ccccc2)n1C [Antipyrine] | −6.86 |  |  | log PABL [1]: −4.46; log Po [1]: −6.14; Q (charge class) [2]: 0
CC(NC(C)(C)C)C(=O)c1cccc(Cl)c1 (centres unmarked) [Bupropion] |  | 101 | + | obs–calc (log Po^in situ) ([3]; no efflux inhibition): 0.9
Cn1c(=O)c2c(ncn2C)n(C)c1=O [Caffeine] |  | 1 | 0 | 
NC(=O)N1c2ccccc2C=Cc2ccccc21 [Carbamazepine] | −6.09 | 29 | 0 | log PABL [1]: −3.25; obs–calc (log Po^in situ) ([3]; efflux inhibition mdr1a(−/−)): 0.6
O=C(O)COCCN1CCN(C(c2ccccc2)c2ccc(Cl)cc2)CC1 (centres unmarked) [Cetirizine] |  |  | ± | 
CN(C)CCCN1c2ccccc2Sc2ccc(Cl)cc21 [Chlorpromazine] | −5.96 | 496 | + | log PABL [1]: −3.10; log Po [1]: −1.46; obs–calc (log Po^in situ) ([3]; efflux inhibition mdr1a(−/−)): 0.2; obs–calc (log Po^in situ) ([3]; no efflux inhibition): 0.0 and 0.2
CN(C)CCCC1(c2ccc(F)cc2)OCc2cc(C#N)ccc21 (centres unmarked) [Citalopram] |  | 99 | + | 
CN1CCN(C2=Nc3cc(Cl)ccc3Nc3ccccc32)CC1 [Clozapine] | −5.74 | 632 | + | log PABL [1]: −3.37; log Po [1]: −2.58; obs–calc (log Po^in situ) ([3]; efflux inhibition mdr1a(−/−)): −0.5
COc1cc2c(c(OC)c1OC)-c1ccc(OC)c(=O)cc1[C@@H](NC(C)=O)CC2 [Colchicine] |  |  |  | Q (charge class) [2]: 0
C[C@]12C[C@H](O)[C@H]3[C@@H](CCC4=CC(=O)CC[C@@]43C)[C@@H]1CC[C@@H]2C(=O)CO [Corticosterone] |  |  | 0 | 
CN1C(=O)CN=C(c2ccccc2)c2cc(Cl)ccc21 [Diazepam] |  |  |  | Q (charge class) [2]: 0
C[C@H]1O[C@@H](O[C@H]2[C@@H](O)C[C@H](O[C@H]3[C@@H](O)C[C@H](O[C@H]4CC[C@@]5(C)[C@H](CC[C@@H]6[C@@H]5C[C@@H](O)[C@]5(C)[C@@H](C7=CC(=O)OC7)CC[C@]65O)C4)O[C@@H]3C)O[C@@H]2C)C[C@H](O)[C@@H]1O [Digoxin] |  |  |  | Q (charge class) [2]: 0
COc1ccc([C@@H]2Sc3ccccc3N(CCN(C)C)C(=O)[C@@H]2OC(C)=O)cc1 [Diltiazem] |  |  | + | 
CN(C)CCOC(c1ccccc1)c1ccccc1 [Diphenhydramine] |  |  | + | 
OCCN(CCO)c1nc(N2CCCCC2)c2nc(N(CCO)CCO)nc(N3CCCCC3)c2n1 [Dipyridamole] |  |  | 0 | 
COc1cc([C@@H]2c3cc4c(cc3[C@@H](O[C@@H]3O[C@@H]5CO[C@@H](C)O[C@H]5[C@H](O)[C@H]3O)[C@H]3COC(=O)[C@H]23)OCO4)cc(OC)c1O [Etoposide] | −6.85 | 0.6 | 0 | log PABL [1]: −4.62; log Po [1]: −6.17; obs–calc (log Po^in situ) ([3]; efflux inhibition mdr1a(−/−)): 0.1; obs–calc (log Po^in situ) ([3]; no efflux inhibition): −0.1
CC(C)(C(=O)O)c1ccc(C(O)CCCN2CCC(C(O)(c3ccccc3)c3ccccc3)CC2)cc1 (centres unmarked) [Fexofenadine] |  |  | ± | 
COc1ccc(Cl)cc1C(=O)NCCc1ccc(S(=O)(=O)NC(=O)NC2CCCCC2)cc1 [Glibenclamide] |  |  | − | Pm^7.4 [4]: 15
O=C(CCCN1CCC(O)(c2ccc(Cl)cc2)CC1)c1ccc(F)cc1 [Haloperidol] | −4.68 | 464 | + | log PABL [1]: −3.38; log Po [1]: −2.06; obs–calc (log Po^in situ) ([3]; no efflux inhibition): −0.3
C[C@]12CCC(=O)C=C1CC[C@@H]1[C@@H]2[C@@H](O)C[C@@]2(C)[C@H]1CC[C@]2(O)C(=O)CO [Hydrocortisone] |  |  | 0 | 
CC(C)Cc1ccc(C(C)C(=O)O)cc1 (centres unmarked) [Ibuprofen] |  |  | − | 

Molecule | log Ppara [1] | Pm^7.4 [1] | Q (charge class) [2, 5] | further results
COc1ccc2c(c1)c(CC(=O)O)c(C)n2C(=O)c1ccc(Cl)cc1 [Indomethacin] | −5.68 | 3 | − | log PABL [1]: −2.67; log Po [1]: −2.67
Nc1nnc(-c2cccc(Cl)c2Cl)c(N)n1 [Lamotrigine] |  |  |  | pKa (physchem): 5.38
CCN(CC)CC(=O)Nc1c(C)cccc1C [Lidocaine] |  |  | + | 
CC[C@H](C)C(=O)O[C@H]1C[C@@H](C)C=C2C=C[C@H](C)[C@H](CC[C@@H](O)C[C@@H](O)CC(=O)O)[C@H]21 [Lovastatin Acid] |  |  | − | 
CN1CCN(C2=Nc3ccccc3Oc3ccc(Cl)cc32)CC1 [Loxapine] |  | 829 |  | pKa (physchem): 7.78
CNCCCC12CCC(c3ccccc31)c1ccccc12 [Maprotiline] | −5.51 | 311 | + | log PABL [1]: −3.21; log Po [1]: −0.56; obs–calc (log Po^in situ) ([3]; no efflux inhibition): 0.2
CCN(CC)CCNC(=O)c1cc(Cl)c(N)cc1OC [Metoclopramide] |  | 380 | + | 
CN1CC[C@]23c4c5ccc(O)c4O[C@H]2[C@@H](O)C=C[C@H]3[C@H]1C5 [Morphine] |  |  |  | Q (charge class) [2]: +
COc1ccc2cc([C@H](C)C(=O)O)ccc2c1 [Naproxen] |  |  | − | 
CC(=O)O[C@H]1C(=O)[C@@]2(C)[C@H]([C@H](OC(=O)c3ccccc3)[C@]3(O)C[C@H](OC(=O)[C@H](O)[C@@H](NC(=O)c4ccccc4)c4ccccc4)C(C)=C1C3(C)C)[C@]1(OC(C)=O)CO[C@@H]1C[C@@H]2O [Paclitaxel] |  |  | 0 | obs–calc (log Po^in situ) [3, 6]: −1.9
OCCN1CCN(CCCN2c3ccccc3Sc3ccc(Cl)cc32)CC1 [Perphenazine] | −5.64 | 1612 | + | log PABL [1]: −3.42; log Po [1]: −1.66; obs–calc (log Po^in situ) [3, 6]: −0.9
O=C1NC(=O)C(c2ccccc2)(c2ccccc2)N1 [Phenytoin] | −6.93 | 41 | 0 | log PABL [1]: −4.51; log Po [1]: −4.34; obs–calc (log Po^in situ) ([3]; efflux inhibition mdr1a(−/−)): −0.3; obs–calc (log Po^in situ) ([3]; no efflux inhibition): −0.4 and −0.3 and −0.2
CC(=O)[C@H]1CC[C@H]2[C@@H]3CCC4=CC(=O)CC[C@]4(C)[C@H]3CC[C@]12C [Progesterone] | −6.20 | 263 | 0 | log PABL [1]: −3.25; log Po [1]: −3.58; obs–calc (log Po^in situ) [3, 6]: −0.6
CC(C)NCC(O)COc1cccc2ccccc12 (centres unmarked) [Propranolol] |  | 87 | + | 
C=C[C@H]1C[N@@]2CC[C@H]1C[C@H]2[C@H](O)c1ccnc2ccc(OC)cc12 [Quinine] |  |  | + | 
Cc1nc2n(c(=O)c1CCN1CCC(c3noc4cc(F)ccc34)CC1)CCCC2 [Risperidone] |  |  |  | Q (charge class) [2]: +; obs–calc (log Po^in situ) [3]: 0.8
CC(C)(C)NC(=O)[C@@H]1C[C@@H]2CCCC[C@@H]2CN1C[C@@H](O)[C@H](Cc1ccccc1)NC(=O)[C@H](CC(N)=O)NC(=O)c1ccc2ccccc2n1 [Saquinavir] |  |  | 0 | log Po [4]: −3.82; Pm^7.4 [4]: 114; obs–calc (log Po^in situ) [3, 6]: −0.1; obs–calc (log Po^in situ) ([3]; efflux inhibition mdr1a(−/−)): 0.5
C[C@]12CC[C@H]3[C@@H](CCC4=CC(=O)CC[C@@]43C)[C@@H]1CC[C@@H]2O [Testosterone] |  |  |  | Q (charge class) [2]: 0
Cn1cnc2c1c(=O)[nH]c(=O)n2C [Theobromine] | −6.94 | 0.01 | 0 | log PABL [1]: −4.45; log Po [1]: −8.00; obs–calc (log Po^in situ) [3, 6]: 1.1
Cn1c(=O)c2[nH]cnc2n(C)c1=O [Theophylline] |  |  |  | Q (charge class) [2]: 0
CCCCNC(=O)NS(=O)(=O)c1ccc(C)cc1 [Tolbutamide] |  |  | − | 
[D-Pen^2,5]-Enkephalin [DPDPE] |  |  |  | Q (charge class) [2]: ±
